Measurements from patent US5068332A, “Alkylidene analogs of 1'-aminospiro[isoquinoline-4(1H),3'-pyrrolidine]-1,2',3,5'(2H)-tetrones useful as aldose reductase inhibitors” (American Home Products Corporation, priority 1990, dated 1991).

What was measured:
aldose reductase = biological target: T1, aldose reductase (Bos taurus, UniProt P16116); assay: aldose reductase inhibition in vitro (modified Hayman and Kinoshita procedure, enzyme from bovine lens); type: biochemical; conditions: 10^-5 M
T1 construct: preparation of the enxyme from bovine lens; from tissue; host or cells: bovine lens
Protocol: (§1) (c) The polyol determination was performed by a modification of the procedure of M. Kraml and L. Cosyns, Clin. Biochem., 2, 373 (1969). Only two minor reagent changes were made: (a) the rinsing mixture was an aqueous 5% (w/v) trichloroacetic acid solution and (b) the stock solution was prepared by dissolving 25 mg of dulcitol in 100 mL of an aqueous trichloroacetic acid solution. [N.B.: For each experiment the average value found in the tissue from rats fed the glucose diet was substracted from the individual values found in the corresponding tissue in galactose-fed rats to obtain the amount of polyol accumulated.] The aldose reductase inhibiting effects of the compounds of formula (I) were also tested by employing an in vitro testing procedure similar to that described by S. Hayman and J.H. Kinoshita, J. Biol. Chem., 240, 877 (1965). In the present case the procedure of Hayman and Kinoshita was modified in that the final chromatography step was omitted in the preparation of the enxyme from bovine lens.

dulcitol accumulation = assay: lowering of galactitol (dulcitol) accumulation in tissues of galactosemic rats in vivo; set-up: species or system rat (male, Sprague-Dawley); conditions: in diet, 4 days; for % Lowering Galactitol Accumulation In Vivo, % (D): diaphragm; for % Lowering Galactitol Accumulation In Vivo, % (L): lens
From the text: The aldose reductase inhibiting property of the compounds of this invention and the utilization of the compounds in preventing, diminishing and alleviating diabetic complications are demonstrable in experiments using galactosemic rats, see Dvornik et al., Science, 182, 1146 (1973). Such experiments are exemplified hereinbelow after the listing of the following general comments pertaining to these experiments:
(a) Four or more groups of six male rats, 50-70 g, Sprague-Dawley strain, were used. The first group, the control group, was fed a mixture of laboratory chow (rodent Laboratory Chow, Purina) and glucose at 20% (w/w %) concentration. An untreated galactosemic group was fed a similar diet in which galactose was substituted for glucose. The third group was fed a diet prepared by mixing a given amount of the test compound with the galactose containing diet. The concentration of galactose in the diet of the treated groups was the same as that for the untreated galactosemic group.
(b) After four days, the animals were killed by euthanization. Both the lens and sciatic nerve were removed, weighed and stored frozen for polyol determination.
as §1
The figures under L, N, and D represent the percentage decrease of dulcitol accumulation in the tissues of the lens, sciatic nerve, and diaphragm, respectively, for treated rats as compared to untreated rats.

O=C1c2ccccc2C2(CC(=O)N(N=C3CCCC3)C2=O)C(=O)N1Cc1ccc(Br)cc1F (stereo not shown) [2-[(4-bromo-2-fluorophenyl)methyl]-1'-(cyclopentylideneamino)spiro[isoquinoline-4(1H),3'-pyrrolidine]-1,2',3,5'(2H)-tetrone]
inhibition at 10 µM (aldose reductase): 0% | % Lowering Galactitol Accumulation In Vivo, % (D) (dulcitol accumulation; 48 mg/kg/day): 95% | % Lowering Galactitol Accumulation In Vivo, % (L) (dulcitol accumulation; 48 mg/kg/day): 76%

CCC(CC)=NN1C(=O)CC2(C(=O)N(Cc3ccc(Br)cc3F)C(=O)c3ccccc32)C1=O (stereo not shown) [2-[(4-bromo-2-fluorophenyl)methyl]-1'-[(1-ethylpropylidene)amino]spiro[isoquinoline-4(1H),3'-pyrrolidine]-1,2',3,5'(2H)-tetrone]
inhibition at 10 µM (aldose reductase): 0% | % Lowering Galactitol Accumulation In Vivo, % (D) (dulcitol accumulation; 51 mg/kg/day): 93% | % Lowering Galactitol Accumulation In Vivo, % (L) (dulcitol accumulation; 51 mg/kg/day): 71%

CC(C)=NN1C(=O)CC2(C(=O)N(Cc3ccc(Br)cc3F)C(=O)c3ccccc32)C1=O (stereo not shown) [2-[(4-bromo-2-fluorophenyl)methyl]-1'-[(1-methylethylidene)amino]spiro[isoquinoline-4(1H),3'-pyrrolidine]-1,2',3,5'(2H)-tetrone]
inhibition at 10 µM (aldose reductase): 8% | % Lowering Galactitol Accumulation In Vivo, % (D) (dulcitol accumulation; 0.9 mg/kg/day): 66% | % Lowering Galactitol Accumulation In Vivo, % (D) (dulcitol accumulation; 10.8 mg/kg/day): 86% | % Lowering Galactitol Accumulation In Vivo, % (D) (dulcitol accumulation; 56 mg/kg/day): 95% | % Lowering Galactitol Accumulation In Vivo, % (L) (dulcitol accumulation; 10.8 mg/kg/day): 30% | % Lowering Galactitol Accumulation In Vivo, % (L) (dulcitol accumulation; 56 mg/kg/day): 53%

O=C1c2ccccc2C2(CC(=O)N(N=C3CCOCC3)C2=O)C(=O)N1Cc1ccc(Br)cc1F (stereo not shown) [2-[(4-bromo-2-fluorophenyl)methyl]-1'-[(tetrahydro-4H-pyran-4-ylidene)amino]spiro[isoquinoline-4(1H),3'-pyrrolidine]-1,2',3,5'(2H)-tetrone]
inhibition at 10 µM (aldose reductase): 36% | % Lowering Galactitol Accumulation In Vivo, % (D) (dulcitol accumulation; 56 mg/kg/day): 89% | % Lowering Galactitol Accumulation In Vivo, % (L) (dulcitol accumulation; 56 mg/kg/day): 44%

CC(C)=NN1C(=O)CC2(C(=O)N(Cc3ccc(Br)cc3F)C(=O)c3ccc(F)cc32)C1=O (stereo not shown) [2-[(4-bromo-2-fluorophenyl)methyl]-6-fluoro-1'-[(1-methylethylidene)amino]spiro[isoquinoline-4(1H),3'-pyrrolidine]-1,2',3,5'(2H)-tetrone]
inhibition at 10 µM (aldose reductase): 5% | % Lowering Galactitol Accumulation In Vivo, % (D) (dulcitol accumulation; 1.1 mg/kg/day): 85% | % Lowering Galactitol Accumulation In Vivo, % (D) (dulcitol accumulation; 27 mg/kg/day): 97% | % Lowering Galactitol Accumulation In Vivo, % (L) (dulcitol accumulation; 27 mg/kg/day): 58%
